According to patent publication US10435405B2, “Pyrazolopyridine compounds and uses thereof” (Incyte Corporation, priority 2016, dated 2019):

The molecules below were run against HPK1 (Homo sapiens (Human), UniProt Q92918) (assay: HPK1 Kinase Binding Assay).
Method in brief: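 Active HPK1 (added as 4 nM solution) was combined with compound (3-fold, 11-point series) and tracer 222 (18 nM) plus Eu-anti-GST antibody (4 nM) in 50 mM HEPES pH 7.5 with MgCl2 and DTT. After 1 h at 25 °C plates were read. Ki values were derived.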

Chain of HPK1 (Q92918 1-346): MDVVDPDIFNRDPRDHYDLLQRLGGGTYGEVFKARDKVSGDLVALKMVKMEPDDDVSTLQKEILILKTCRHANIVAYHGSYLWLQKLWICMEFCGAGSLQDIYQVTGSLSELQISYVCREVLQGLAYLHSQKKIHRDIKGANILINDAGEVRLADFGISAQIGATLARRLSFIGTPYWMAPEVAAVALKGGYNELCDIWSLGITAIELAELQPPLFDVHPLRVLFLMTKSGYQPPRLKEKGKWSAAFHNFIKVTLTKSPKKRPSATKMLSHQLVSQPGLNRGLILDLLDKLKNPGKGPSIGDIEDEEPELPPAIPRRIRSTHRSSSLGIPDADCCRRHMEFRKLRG

Row | Ki | Structure (SMILES)
1 | ≤ 0.1 µM | Cn1cc(-c2n[nH]c3cnc(-c4c(F)cc(NC(=O)Cc5cccnc5)cc4F)cc23)cn1 [Example 67, N-(3,5-Difluoro-4-(3-(1-methyl-1H-pyrazol-4-yl)-1H-pyrazolo[3,4-c]pyridin-5-yl)phenyl)-2-(pyridin-3-yl)acetamide]
2 | ≤ 0.1 µM | CNCc1cccc(-c2cc3c(-c4cnn(C)c4)n[nH]c3cn2)c1C [Example 86, N-Methyl-1-(2-methyl-3-(3-(1-methyl-1H-pyrazol-4-yl)-1H-pyrazolo[3,4-c]pyridin-5-yl)phenyl)methanamine]
3 | ≤ 0.1 µM | CNCc1ccc(-c2cc3c(-c4cnn(C)c4)n[nH]c3cn2)c(C)c1 [Example 111, N-Methyl-1-(3-methyl-4-(3-(1-methyl-1H-pyrazol-4-yl)-1H-pyrazolo[3,4-c]pyridin-5-yl)phenyl)methanamine]
4 | ≤ 0.1 µM | COc1cccc(F)c1-c1cc2c(NC(=O)c3ccc(Br)cc3)n[nH]c2cn1 [Example 3, 4-Bromo-N-(5-(2-fluoro-6-methoxyphenyl)-1H-pyrazolo[3,4-c]pyridin-3-yl)benzamide]
5 | ≤ 0.1 µM | CC(C)NCc1cccc(-c2cc3c(-c4cnn(C)c4)n[nH]c3cn2)c1C(F)(F)F [Example 91, N-(3-(3-(1-Methyl-1H-pyrazol-4-yl)-1H-pyrazolo[3,4-c]pyridin-5-yl)-2-(trifluoromethyl)benzyl)propan-2-amine]
6 | ≤ 0.1 µM | Cn1cc(-c2n[nH]c3cnc(-c4c(F)cc(NC(=O)CC5CCCC5)cc4F)cc23)cn1 [Example 66, 2-Cyclopentyl-N-(3,5-difluoro-4-(3-(1-methyl-1H-pyrazol-4-yl)-1H-pyrazolo[3,4-c]pyridin-5-yl)phenyl)acetamide]
7 | ≤ 0.1 µM | Cn1cc(-c2n[nH]c3cnc(-c4cccc(CN5CCC5)c4C(F)(F)F)cc23)cn1 [Example 89, 5-(3-(Azetidin-1-ylmethyl)-2-(trifluoromethyl)phenyl)-3-(1-methyl-1H-pyrazol-4-yl)-1H-pyrazolo[3,4-c]pyridine]
8 | ≤ 0.1 µM | Cn1cc(C(=O)Nc2cc(F)c(-c3cc4c(-c5cnn(C)c5)n[nH]c4cn3)c(F)c2)cn1 [Example 65, N-(3,5-Difluoro-4-(3-(1-methyl-1H-pyrazol-4-yl)-1H-pyrazolo[3,4-c]pyridin-5-yl)phenyl)-1-methyl-1H-pyrazole-4-carboxamide]
9 | ≤ 0.1 µM | CCN1CCN(c2cccc(C(=O)Nc3n[nH]c4cnc(-c5c(F)cccc5OC)cc34)c2)CC1 [Example 20, 3-(4-Ethylpiperazin-1-yl)-N-(5-(2-fluoro-6-methoxyphenyl)-1H-pyrazolo[3,4-c]pyridin-3-yl)benzamide]
10 | ≤ 0.1 µM | CNCc1cc(C)c(-c2cc3c(-c4ccc(C(=O)NC)cc4)n[nH]c3cn2)c(F)c1 [Example 169, 4-(5-(2-Fluoro-6-methyl-4-((methylamino)methyl)phenyl)-1H-pyrazolo[3,4-c]pyridin-3-yl)-N-methylbenzamide]
11 | ≤ 0.1 µM | CCOc1cccc(F)c1-c1cc2c(-c3ccc(N4CCN(C)CC4)cc3)n[nH]c2cn1 [Example 51, 5-(2-Ethoxy-6-fluorophenyl)-3-(4-(4-methylpiperazin-1-yl)phenyl)-1H-pyrazolo[3,4-c]pyridine]
12 | ≤ 0.1 µM | Cn1cc(-c2n[nH]c3cnc(-c4cccc(CNC5CCOCC5)c4C(F)(F)F)cc23)cn1 [Example 90, N-(3-(3-(1-Methyl-1H-pyrazol-4-yl)-1H-pyrazolo[3,4-c]pyridin-5-yl)-2-(trifluoromethyl)benzyl)tetrahydro-2H-pyran-4-amine]
13 | ≤ 0.1 µM | COC1CN(Cc2cc(F)c(-c3cc4c(NC(=O)c5ccc(N6CCN(C)CC6)cc5)n[nH]c4cn3)c(F)c2)C1 [Example 143, N-(5-(2,6-Difluoro-4-((3-methoxyazetidin-1-yl)methyl)phenyl)-1H-pyrazolo[3,4-c]pyridin-3-yl)-4-(4-methylpiperazin-1-yl)benzamide]
14 | ≤ 0.1 µM | Cc1cccc(C)c1-c1cc2c(-c3ccc(N4CCN(C)CC4)cc3)n[nH]c2cn1 [Example 45, 5-(2,6-Dimethylphenyl)-3-(4-(4-methylpiperazin-1-yl)phenyl)-1H-pyrazolo[3,4-c]pyridine]
15 | ≤ 0.1 µM | CN1CCN(c2ccc(-c3n[nH]c4cnc(-c5c(F)ccc6c5CCCC6N)cc34)cc2)CC1 (stereo not shown) [Example 241, 6-Fluoro-5-(3-(4-(4-methylpiperazin-1-yl)phenyl)-1H-pyrazolo[3,4-c]pyridin-5-yl)-1,2,3,4-tetrahydronaphthalen-1-amine]
16 | ≤ 0.1 µM | COc1cccc(F)c1-c1cc2c(-c3cnc(N4CCOCC4)s3)n[nH]c2cn1 [Example 34, 4-(5-(5-(2-Fluoro-6-methoxyphenyl)-1H-pyrazolo[3,4-c]pyridin-3-yl)thiazol-2-yl)morpholine]
17 | ≤ 0.1 µM | CNC1CCc2c1cc(C)c(-c1cc3c(-c4cnn(C)c4)n[nH]c3cn1)c2F (single isomer, unassigned) [Example 238, 4-Fluoro-N,6-dimethyl-5-(3-(1-methyl-1H-pyrazol-4-yl)-1H-pyrazolo[3,4-c]pyridin-5-yl)-2,3-dihydro-1H-inden-1-amine]

Row | Ki | Structure (SMILES)
18 | ≤ 0.1 µM | COc1c(-c2cc3c(-c4ccc(N5CCN(C)CC5)cc4)n[nH]c3cn2)c(F)cc2c1C(N)CC2 (stereo not shown) [Example 206, 5-Fluoro-7-methoxy-6-(3-(4-(4-methylpiperazin-1-yl)phenyl)-1H-pyrazolo[3,4-c]pyridin-5-yl)-2,3-dihydro-1H-inden-1-amine]
19 | ≤ 0.1 µM | CN1CCN(c2ccc(-c3n[nH]c4cnc(-c5c(F)cccc5CO)cc34)cc2)CC1 [Example 196, (3-Fluoro-2-(3-(4-(4-methylpiperazin-1-yl)phenyl)-1H-pyrazolo[3,4-c]pyridin-5-yl)phenyl)methanol]
20 | ≤ 0.1 µM | Cc1cc(CNCC#N)cc(F)c1-c1cc2c(-c3cnn(C)c3)n[nH]c2cn1 [Example 188, 2-(3-Fluoro-5-methyl-4-(3-(1-methyl-1H-pyrazol-4-yl)-1H-pyrazolo[3,4-c]pyridin-5-yl)benzylamino)acetonitrile]
21 | ≤ 0.1 µM | COc1cccc(F)c1-c1cc2c(N3CCN(c4ccncc4)CC3)n[nH]c2cn1 [Example 40, 5-(2-Fluoro-6-methoxyphenyl)-3-(4-(pyridin-4-yl)piperazin-1-yl)-1H-pyrazolo[3,4-c]pyridine]
22 | ≤ 0.1 µM | CNCc1cc(F)c(-c2cc3c(NC(=O)c4cnn(C)c4)n[nH]c3cn2)c(F)c1 [Example 144, N-(5-(2,6-Difluoro-4-((methylamino)methyl)phenyl)-1H-pyrazolo[3,4-c]pyridin-3-yl)-1-methyl-1H-pyrazole-4-carboxamide]
23 | ≤ 0.1 µM | CNC(=O)c1cn(-c2n[nH]c3cnc(-c4c(F)cccc4OC)cc23)cn1 [Example 105, 1-(5-(2-Fluoro-6-methoxyphenyl)-1H-pyrazolo[3,4-c]pyridin-3-yl)-N-methyl-1H-imidazole-4-carboxamide]
24 | ≤ 0.1 µM | CNC(=O)c1ccc(-c2n[nH]c3cnc(-c4c(F)cc5c(c4F)C(NC)CC5)cc23)cc1 (stereo not shown) [Example 204, 4-(5-(4,6-Difluoro-3-(methylamino)-2,3-dihydro-1H-inden-5-yl)-1H-pyrazolo[3,4-c]pyridin-3-yl)-N-methylbenzamide]
25 | ≤ 0.1 µM | COc1cccc(F)c1-c1cc2c(NC(=O)c3cccc(F)c3)n[nH]c2cn1 [Example 6, 3-Fluoro-N-(5-(2-fluoro-6-methoxyphenyl)-1H-pyrazolo[3,4-c]pyridin-3-yl)benzamide]
26 | ≤ 0.1 µM | Cn1cc(-c2n[nH]c3cnc(-c4c(F)ccc(CCNC5CCOCC5)c4F)cc23)cn1 [Example 98, N-(2,4-Difluoro-3-(3-(1-methyl-1H-pyrazol-4-yl)-1H-pyrazolo[3,4-c]pyridin-5-yl)phenethyl)tetrahydro-2H-pyran-4-amine]
27 | ≤ 0.1 µM | CN1CCN(c2ccc(-c3n[nH]c4cnc(-c5c(F)cccc5Cl)cc34)cc2)CC1 [Example 47, 5-(2-Chloro-6-fluorophenyl)-3-(4-(4-methylpiperazin-1-yl)phenyl)-1H-pyrazolo[3,4-c]pyridine]
28 | ≤ 0.1 µM | Cn1cc(-c2n[nH]c3cnc(-c4c(F)cc(CNc5ccn(C)n5)cc4F)cc23)cn1 [Example 125, N-(3,5-Difluoro-4-(3-(1-methyl-1H-pyrazol-4-yl)-1H-pyrazolo[3,4-c]pyridin-5-yl)benzyl)-1-methyl-1H-pyrazol-3-amine]
29 | ≤ 0.1 µM | CNC1CCCc2c1ccc(F)c2-c1cc2c(-c3ccc(N4CCN(C)CC4)cc3)n[nH]c2cn1 (stereo not shown) [Example 209, 6-Fluoro-N-methyl-5-(3-(4-(4-methylpiperazin-1-yl)phenyl)-1H-pyrazolo[3,4-c]pyridin-5-yl)-1,2,3,4-tetrahydronaphthalen-1-amine]
30 | ≤ 0.1 µM | CNCc1cc(F)c(-c2cc3c(-c4ccc(N5CCN(C(C)=O)CC5)cn4)n[nH]c3cn2)c(OC(F)F)c1 [Example 193, 1-(4-(6-(5-(2-(Difluoromethoxy)-6-fluoro-4-((methylamino)methyl)phenyl)-1H-pyrazolo[3,4-c]pyridin-3-yl)pyridin-3-yl)piperazin-1-yl)ethanone]
31 | ≤ 0.1 µM | Cc1cc(NC(=O)CN2C[C@H]3CC[C@@H]2C3)ccc1-c1cc2c(-c3cnn(C)c3)n[nH]c2cn1 [Example 79, 2-((1R,4S)-2-Azabicyclo[2.2.1]heptan-2-yl)-N-(3-methyl-4-(3-(1-methyl-1H-pyrazol-4-yl)-1H-pyrazolo[3,4-c]pyridin-5-yl)phenyl)acetamide]
32 | ≤ 0.1 µM | COc1cccc(F)c1-c1cc2c(-c3cnc(C)s3)n[nH]c2cn1 [Example 36, 5-(5-(2-Fluoro-6-methoxyphenyl)-1H-pyrazolo[3,4-c]pyridin-3-yl)-2-methylthiazole]
33 | ≤ 0.1 µM | COc1cccc(F)c1-c1cc2c(NC(=O)c3ccc(N4CCN(C5CC5)C(=O)C4)cc3)n[nH]c2cn1 [Example 31, 4-(4-Cyclopropyl-3-oxopiperazin-1-yl)-N-(5-(2-fluoro-6-methoxyphenyl)-1H-pyrazolo[3,4-c]pyridin-3-yl)benzamide]

Row | Structure (SMILES) | Ki
34 | CNC(C)c1cc(C)c(-c2cc3c(-c4cnn(C)c4)n[nH]c3cn2)c(F)c1 (single isomer, unassigned) [Example 189, 1-(3-Fluoro-5-methyl-4-(3-(1-methyl-1H-pyrazol-4-yl)-1H-pyrazolo[3,4-c]pyridin-5-yl)phenyl)-N-methylethanamine] | ≤ 0.1 µM
